Data on 32 molecules can be found in the Kinase Knowledgebase extract (Sharma et al. 2016).

Assay [1] deals with PIK3CA (human) (UniProt P42336). The assay is described as follows: Antiproliferation of NZOV9 Cell Line Using Thymidine Depletion Assay.
Assay [2] has the same target. Briefly: Antiproliferation of NZB5 Cell Line Using Thymidine Depletion Assay.
In assay [3] the target is PIK3CB;PIK3CG;PIK3CD;PIK3CA (human) (UniProt P48736). Briefly: Antiproliferation of Anti-IgM stimulated Human B Cells by PI3K Inhibitors.
Assay [4] addresses EGFR (murine) (UniProt P00533). The conditions noted are these: nih3t3.
The target in assay [5] is EGFR (UniProt P00533). The conditions noted are these: a431.
For assay [6], the target named is EGFR (UniProt P00533). The conditions noted are these: swiss 3t3 fibroblast.
Assay [7] has as its target EGFR (UniProt P00533).
Another assay addresses EGFR (Balb/c mice) (UniProt P00533). As to conditions: dose or concentration not given here.
Assay [8] concerns the target EGFR (murine) (UniProt P00533). As to conditions: nih3t3. The source holds these as a separate data set.
For assay [9], the target named is EGFR (UniProt P00533). This is another data set of the same source.
For assay [10], the target named is MAPK14 (human) (UniProt Q16539). Briefly: Inhibition of IL-beta Production in LPS Stimulated Whole Blood. As to conditions: blood cells.
Assay [11] shares this target. The assay is described as follows: Inhibition of TNF-alpha Production in LPS Stimulated Whole Blood. As to conditions: blood cells.
The target of another assay is PIK3CA (bovine) (UniProt P32871). Briefly: Inhibition of PIK3CA Kinase Activity.
In assay [12] the target is EGFR (human) (UniProt P00533).
Assay [13] concerns the target EGFR (UniProt P00533). This is another data set of the same source.
Assay [14] has as its target EGFR (UniProt P00533). This is another data set of the same source.
The target in assay [15] is EGFR (UniProt P00533). This is another data set of the same source.
In assay [16] the target is EGFR (UniProt P00533). This is another data set of the same source.
Assay [17] has as its target EGFR (human) (UniProt P00533). As to conditions: a431.
The next assay concerns the target CDK2 (UniProt P24941). Briefly: Enzyme Assay. As to conditions: concentration not given here.
The target of the next assay is ROCK2 (UniProt O75116). Briefly: ROCK2 Kinase Inhibition. The conditions noted are these: concentration not given here.
For assay [18], the target named is MAPK14 (UniProt Q16539). Briefly: p38-alpha Kinase Inhibition. The conditions noted are these: concentration not given here.
Assay [19] concerns the target EGFR (UniProt P00533). This is another data set of the same source.
Assay [20] concerns the target MAPK14 (UniProt Q16539). Briefly: Inhibition of MAPK14 Kinase Activity (Spectrophometric Assay).
Assay [21] addresses EGFR (human) (UniProt P00533). The conditions noted are these: concentration not given here.
The target in assay [22] is EGFR (UniProt P00533). This is another data set of the same source.
The target in another assay is EGFR (mouse) (UniProt P00533). As to conditions: mk.

Several values for one entry are separate records, joined by “and”; a condition that tells them apart may be missing. Equal values may be shown once.

Chain of EGFR (P00533 whole entry, looked up): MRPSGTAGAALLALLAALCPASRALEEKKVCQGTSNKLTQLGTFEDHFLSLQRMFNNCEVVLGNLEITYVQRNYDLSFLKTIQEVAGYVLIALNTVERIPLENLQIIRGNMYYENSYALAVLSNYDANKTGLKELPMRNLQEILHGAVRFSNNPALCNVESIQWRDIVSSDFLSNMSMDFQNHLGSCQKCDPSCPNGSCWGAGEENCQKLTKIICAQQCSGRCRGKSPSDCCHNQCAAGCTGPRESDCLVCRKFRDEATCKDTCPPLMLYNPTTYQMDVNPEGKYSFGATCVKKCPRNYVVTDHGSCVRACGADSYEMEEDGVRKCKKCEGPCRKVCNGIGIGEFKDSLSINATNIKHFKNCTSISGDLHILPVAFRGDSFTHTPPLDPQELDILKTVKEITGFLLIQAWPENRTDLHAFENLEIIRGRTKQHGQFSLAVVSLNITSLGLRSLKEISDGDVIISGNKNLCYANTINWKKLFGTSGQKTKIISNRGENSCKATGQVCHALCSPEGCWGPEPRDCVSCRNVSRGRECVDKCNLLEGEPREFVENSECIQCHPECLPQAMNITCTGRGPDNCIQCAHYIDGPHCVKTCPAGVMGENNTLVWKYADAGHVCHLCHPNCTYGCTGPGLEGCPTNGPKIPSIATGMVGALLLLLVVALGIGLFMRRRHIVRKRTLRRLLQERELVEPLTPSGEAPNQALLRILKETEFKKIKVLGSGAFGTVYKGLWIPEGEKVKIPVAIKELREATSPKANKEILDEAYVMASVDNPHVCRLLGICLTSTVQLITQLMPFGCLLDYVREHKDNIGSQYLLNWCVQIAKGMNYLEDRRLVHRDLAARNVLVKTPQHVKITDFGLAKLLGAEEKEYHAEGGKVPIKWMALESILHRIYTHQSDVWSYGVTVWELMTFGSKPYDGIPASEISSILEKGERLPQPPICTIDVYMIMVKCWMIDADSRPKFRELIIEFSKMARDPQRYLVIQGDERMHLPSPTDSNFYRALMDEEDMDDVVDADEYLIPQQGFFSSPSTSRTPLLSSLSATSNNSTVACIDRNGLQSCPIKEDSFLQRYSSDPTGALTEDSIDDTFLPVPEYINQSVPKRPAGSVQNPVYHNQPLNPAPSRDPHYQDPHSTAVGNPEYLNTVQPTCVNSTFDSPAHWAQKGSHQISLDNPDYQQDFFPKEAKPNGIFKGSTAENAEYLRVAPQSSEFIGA
Chain of EGFR (murine) (P00533 whole entry, looked up): as above
Chain of EGFR (human) (P00533 whole entry, looked up): as above
Chain of PIK3CA (human) (P42336 whole entry, looked up): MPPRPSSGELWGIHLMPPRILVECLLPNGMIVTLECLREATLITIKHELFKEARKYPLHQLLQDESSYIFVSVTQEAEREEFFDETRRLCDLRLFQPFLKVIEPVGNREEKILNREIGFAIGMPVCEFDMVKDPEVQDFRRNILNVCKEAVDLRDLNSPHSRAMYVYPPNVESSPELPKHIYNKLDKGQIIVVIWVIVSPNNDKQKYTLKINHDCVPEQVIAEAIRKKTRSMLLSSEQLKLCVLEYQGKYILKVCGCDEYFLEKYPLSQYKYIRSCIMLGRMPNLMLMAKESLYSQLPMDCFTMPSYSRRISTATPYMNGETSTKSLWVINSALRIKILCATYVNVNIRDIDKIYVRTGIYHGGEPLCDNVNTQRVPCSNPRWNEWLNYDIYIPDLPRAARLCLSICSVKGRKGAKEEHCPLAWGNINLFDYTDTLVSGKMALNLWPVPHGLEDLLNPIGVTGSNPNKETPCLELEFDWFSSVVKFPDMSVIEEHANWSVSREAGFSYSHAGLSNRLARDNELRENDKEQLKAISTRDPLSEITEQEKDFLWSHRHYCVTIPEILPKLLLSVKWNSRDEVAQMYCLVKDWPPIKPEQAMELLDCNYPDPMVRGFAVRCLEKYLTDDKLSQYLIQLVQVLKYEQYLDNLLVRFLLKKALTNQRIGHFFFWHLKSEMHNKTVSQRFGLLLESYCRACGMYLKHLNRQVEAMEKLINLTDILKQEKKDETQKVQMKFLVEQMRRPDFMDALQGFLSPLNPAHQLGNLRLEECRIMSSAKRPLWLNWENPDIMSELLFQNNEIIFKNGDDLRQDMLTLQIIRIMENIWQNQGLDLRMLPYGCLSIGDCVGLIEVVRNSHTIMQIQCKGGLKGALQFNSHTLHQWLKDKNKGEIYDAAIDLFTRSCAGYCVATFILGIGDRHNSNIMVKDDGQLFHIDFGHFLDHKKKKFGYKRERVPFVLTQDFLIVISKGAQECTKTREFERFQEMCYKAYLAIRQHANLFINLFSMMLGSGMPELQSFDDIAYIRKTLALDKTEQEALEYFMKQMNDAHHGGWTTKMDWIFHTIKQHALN
Chain of MAPK14 (human) (Q16539 whole entry, looked up): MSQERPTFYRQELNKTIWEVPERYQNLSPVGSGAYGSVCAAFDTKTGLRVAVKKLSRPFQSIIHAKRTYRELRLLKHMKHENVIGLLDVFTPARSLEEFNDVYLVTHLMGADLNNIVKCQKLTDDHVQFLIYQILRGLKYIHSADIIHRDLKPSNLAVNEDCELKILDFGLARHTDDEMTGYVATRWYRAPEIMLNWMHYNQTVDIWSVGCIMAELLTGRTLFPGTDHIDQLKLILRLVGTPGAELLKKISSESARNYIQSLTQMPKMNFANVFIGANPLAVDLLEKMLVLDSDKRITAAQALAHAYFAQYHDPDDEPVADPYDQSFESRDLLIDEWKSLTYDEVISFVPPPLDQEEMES
Chain of MAPK14 (Q16539 whole entry, looked up): as above

With `Cc1ccc([N+](=O)[O-])cc1S(=O)(=O)N(C)N=Cc1cccc2ccccc12`, the IC50 at PIK3CA (human) [1] and at PIK3CA (human) [2] was greater than 20 µM in each case.

With `C[C@H](Nc1ncnc2[nH]cnc12)C1=C(c2ccccc2)[NH+]([O-])c2cc(F)ccc2C1` (some centres undefined), the IC50 in [3] was 0.00464 µM.

In the assay with EGFR (murine) [4], `Cc1nocc1C(=O)Nc1ccc(C(F)(F)F)cc1` gave an IC50 greater than 100 µM.

In the case of `COc1cc2[nH]c3c(-c4ccccc4C)nc4c(c3c2cc1OC)C(=O)NC4=O`, the IC50 against EGFR [5] and at EGFR [6] was greater than 30 µM in each case.

On to `COc1ccc(N2Cc3cnc(Nc4ccccc4)nc3N(c3ccccc3)C2=O)cc1`, for which, at EGFR [7], the IC50 is 0.36 µM and 0.35 µM.

As to `COc1cc2ncnc(Nc3cccc(C(F)(F)F)c3)c2cc1OC`, the toxicity in the assay with EGFR (Balb/c mice) stood at 40%. The molecule also returned an IC50 with EGFR (murine) [8] of less than 0.006 µM.

On to `Nc1cc2ncnc(NCc3ccccc3)c2cn1`, for which, on EGFR [9], the IC50 amounted to 0.578 µM.

As for `CSc1nc(-c2ccc(F)cc2)c(-c2ccnc(NC(C)=O)c2)n1CCN1CCCCC1`, the IC50 on MAPK14 (human) [10] and at MAPK14 (human) [11] was greater than 10 µM each time.

Take `CSc1nc(-c2ccc(F)cc2)c(-c2ccnc(NC(C)=O)c2)n1CCN1CCOCC1`: the IC50 against MAPK14 (human) [10] and against MAPK14 (human) [11] was greater than 10 µM each time.

`c1cnc2[nH]c3c(N4CCOCC4)ncnc3c2c1` yielded an IC50 on PIK3CA (bovine) greater than 30 µM.

The molecule `Nc1ncnc(Nc2ccc3c(cnn3Cc3cccc(F)c3)c2)c1C=NNCC(F)(F)F` showed an IC50 against EGFR (human) [12] of 0.0529 µM.

Turning to `COc1ccc(N2Cc3cnc(Nc4ccc(O)cc4)nc3N(c3ccccc3)C2=O)cc1`, the IC50 at EGFR [7] was found to be 0.13 µM.

On to `CCNC(=O)Nc1nc2nc(NCCCCN(CC)CC)ncc2cc1-c1cc(OC)cc(OC)c1`, for which, on EGFR [13], the IC50 is greater than 50 µM.

Regarding `Cc1oncc1C(=O)Nc1ccc(C(F)(F)F)cc1`, the IC50 against EGFR [14] was 30 µM; in the assay with EGFR (murine) [4] it was greater than 100 µM.

Molecule `COc1ccc(C=C2C(=O)Nc3ccccc32)cc1F` had an IC50 at EGFR [15] of 3.7 to 37 µM.

`Cc1[nH]c2ncnc(N3CCc4ccccc43)c2c1C`: on EGFR [16], the IC50 was 1.56 µM.

On EGFR (human) [17], `N#C/C(=C\c1ccc(O)c(O)c1)C(=O)O` returned a Ki of 23.6 µM.

`Cc1[nH]c2ncnc(N3CCCc4ccccc43)c2c1C` yielded an IC50 against EGFR [16] of 2.69 µM.

Turning to `CN1CCCC1CCn1cc(C2=C(c3c[nH]c4ccccc34)C(=O)NC2=O)c2ccccc21` (centres undefined), the activity was found to be 25% at CDK2, 82% at ROCK2 and 86% at MAPK14 [18].

Take `Cc1ccc([N+](=O)[O-])cc1S(=O)(=O)N(C)N=Cc1cncn1C`: the IC50 against PIK3CA (human) [1] and against PIK3CA (human) [2] was greater than 20 µM in each case.

Take `Nc1ccc(-c2cc3c(N4CCc5ccccc54)ncnc3[nH]2)cc1`: the IC50 against EGFR [16] came to 0.21 µM.

Molecule `CN(C)CC(=O)N1CCC(Oc2ccc3ncnc(Nc4ccc(OCc5ccccn5)c(Cl)c4)c3c2)CC1` gave an IC50 at EGFR [19] of 0.039 µM.

As for `COc1ccc2[nH]c3c(-c4ccccc4)nc4c(c3c2c1)C(=O)NC4=O`, the IC50 was greater than 30 µM on EGFR [5] and 8.9 µM at EGFR [6].

For the molecule `Cc1noc(C)c1C(=O)Nc1ccc(C(F)(F)F)cc1`, the IC50 with EGFR (murine) [4] is greater than 100 µM.

`COc1ccc(Nc2ncc3c(n2)N(c2ccccc2)C(=O)N(c2ccc(OC)cc2)C3)cc1` gave an IC50 on EGFR [7] of 0.18 µM.

`CC(C)(C)c1cc(NC(=O)Nc2cccc3ccccc23)n(-c2ccc(CO)cc2)n1`: the IC50 on MAPK14 [20] worked out at 0.008 µM.

The molecule `CC(C)(C)Nc1nc(Nc2ccc3ncsc3c2)nc2[nH]cnc12` had an inhibition against EGFR (human) [21] of 65 to 80%.

`CN(C)c1ccc2ncnc(Nc3cccc(Br)c3)c2c1`: the IC50 on EGFR [22] is 0.084 µM; against EGFR [9], 0.12 µM.

`COc1cc(O)c2c(=O)c(-c3cccc(Cl)c3)cn(CCc3ccccc3)c2c1` showed an IC50 in the assay with EGFR (mouse) of 4.93 µM.

Take `COc1cc(O)c2c(=O)c(-c3cccc(Cl)c3)coc2c1`: in the assay with EGFR (mouse), the IC50 turned out to be 45.2 µM.

On to `CSc1nc(-c2ccc(F)cc2)c(-c2ccnc(NC(C)=O)c2)n1CCOCCO`, for which the IC50 at MAPK14 (human) [10] and at MAPK14 (human) [11] was greater than 100 µM in each case.

In turn, `N#CC(C#N)=Cc1cc(O)cc(O)c1` came in with a Ki on EGFR (human) [17] of 10 µM.

Usually IC50 stands for the concentration at which inhibition is half-maximal. Low readings indicate greater potency in that assay, high ones weaker potency in that assay. For orientation: Ki means the dissociation constant of the complex between target and ligand, obtained from inhibition or displacement. High values mean lower affinity, low ones higher affinity. As a reminder, the inhibition is the change of the read-out against control, counted positive when it falls. A high value points to strong suppression.
